According to patent US20160311812A1, “ADENOSINE A1 AGONISTS AS MEDICAMENTS FOR KIDNEY DISORDERS” (BAYER PHARMA AKTIENGESELLSCHAFT, priority 2013, published 2016):
Marks after values point to notes of the source that are not given here.

How the values were obtained:
[1] = tested on: unilaterally nephrectomized SHR; assay: Functional and structural myocardial dysfunction in unilaterally nephrectomized spontaneously hypertensive rats; assay type: in vivo, rat; settings: Group 4: SNX + 1.0 mg/kg body weight/day p.o., 4 weeks
Source text: (§1) B-4. Effects of Partial A1 Agonists on Renal and Cardiac Function in Unilaterally Nephrectomized and Spontaneously Hypertensive Rats (Example 2 for Chronic Kidney Disorders)
(§2) Unilaterally nephrectomized, spontaneously hypertensive rats (SHR) are an established animal model for investigating the development and progression of hypertensive damage of the glomeruli in the remaining kidney [H. Kinuno et al., “Effects of uninephrectomy on renal structural properties in spontaneously hypertensive rats”, Clin and Exp Pharmacol and Physiol 2005, 32, 173-178]. […] Furthermore, renal excretion of substances usually eliminated in the urine, such as creatinine and urea, is reduced and the electrolyte metabolism is disturbed, the latter being associated with volume retention.
(§3) Procedure: male SHR rats (180-220 g) from Taconic had the left kidney removed in one session (=UNX). Normotensive Wistar Kyoto rats (WKY) from Taconic served as control. The following groups, each with 12 rats per group, were investigated:
(§4) Group 2 UNX+placebo (60 g glycerol+100 g water+969 g PEG-400)
(§5) Group 3 UNX+10 mg/kg body weight/day enalapril (reference therapy, in the drinking water)
(§6) Group 4 SNX+1.0 mg/kg body weight/day partial A1 EXAMPLE 1, p.o. in placebo
(§7) Group 5 SNX+3.0 mg/kg body weight/day partial A1 EXAMPLE 4, p.o. in placebo
(§8) Three weeks after unilateral nephrectomy, the SHRs developed manifest hypertensive damage of the glomeruli in the remaining kidney, from this time point on the rats were treated for a further four weeks corresponding to the groups given above. At the end of the protocol, the following samples were obtained/measurements were carried out: eight-hour urine collection, invasive measurement of systolic and diastolic left ventricular function, and TaqMan analyses of renal injury markers in the renal cortex.

[2] = tested on: unilaterally nephrectomized SHR; assay: Functional and structural renal dysfunction in unilaterally nephrectomized spontaneously hypertensive rats; assay type: in vivo, rat; settings: Group 4: SNX + 1.0 mg/kg body weight/day p.o., 4 weeks
Source text: as §1, §2, §3, §4, §5, §6, §7, §8

glycerol-rat model = assay: Acute renal protection in the glycerol rat (haemolytic-uraemic syndrome); assay type: in vivo; settings: Group 3: glycerol + 10 mg/kg BW p.o. 8 and 19 h after glycerol injection
Source text: B-2. Acute Renal Protection by Partial A1 Agonists in the Glyeriol Rat (Haemolytic-Uraemic Syndrome; Example for Acute Kidney Disorders)
Glycerol-induced haemolysis in rats is an established animal model for investigating haemolysis-induced, acute renal failure with decrease of the individual nephron filtrate and a rapid increase in substances that are usually eliminated in the urine, such as creatinine and urea. Haemolytic uraemia leads to acute blockade of the tubules through protein deposits (“luminal casts”) and finally to degeneration/necrosis of the tubules. At present there is no known curative therapy, i.e. an antidegenerative therapy of structural kidney injury.
Procedure: male Wistar:WU rats (200-220 g) from Charles River received, after withdrawal of water for 14-18 hours, a single subcutaneous injection of a 50% glycerol solution (8 ml/kg body weight) or 0.9% NaCl (controls). The following groups were investigated:
Group 2 Glycerol+placebo (60 g glycerol+100 g water+969 g PEG-400); n=12
Group 3 Glycerol+10 mg/kg BW partial A1 agonist EXAMPLE 1, p.o. in placebo, 8 and 19 hours after glycerol injection; n=8
At the end of the protocol (=24 hours after glycerol intoxication), the following samples were obtained/measurements were carried out: four-hour urine collection with administration of water (10 ml water/kg body weight, p.o.), and TaqMan analyses of renal injury markers in the renal cortex of the right kidney and histological assessment of the “kidney injury score” in the left kidney, by determining the degree of renal damage from the intensity of “luminal casts+tubular necrosis/degeneration”.

Structure (SMILES): N#Cc1c(N)nc(SCc2csc(-c3ccc(Cl)cc3)n2)c(C#N)c1-c1ccc(OCCO)cc1 [EXAMPLE 1, 2-Amino-6-({[2-(4-chlorophenyl)-1,3-thiazol-4-yl]methyl}sulphanyl)-4-[4-(2-hydroxyethoxy)phenyl]pyridine-3,5-dicarbonitrile]
- Diastolic blood pressure [1]: 112 ± 6 mmHg
- Heart rate [1]: 295 ± 11 beats/min
- Left ventricular hypertrophy (LVS/RV ratio, mg/mg) [1]: 4.3 ± 0.2 mg/mg
- Left-ventricular end-diastolic pressure [1]: 8.5 ± 1.3 mmHg
- Left-ventricular pressure [1]: 169 ± 8 mmHg
- Pressure decrease over time [1]: −10181 ± 523 mmHg/s
- Pressure increase over time [1]: 7943 ± 512 mmHg/s
- Systolic blood pressure [1]: 171 ± 8 mmHg
- P-creatinine [2]: 62 ± 1.1 mmol/L
- P-urea [2]: 9.3 ± 0.4 mmol/L
- U-creatinine [2]: 2.1 ± 0.4 μmol/ml urine/kg BW/h
- U-protein [2]: 0.53 ± 0.10 μmol/ml urine/kg BW/h
- U-sodium [2]: 37 ± 9 μmol/ml urine/kg BW/h
- U-urea [2]: 186 ± 31 μmol/ml urine/kg BW/h
- Urine volume [2]: 2.1 ± 0.2 ml/kg BW/h
- CYR61 [gene expression] ([2]; renal cortex): 395 ± 47 rel. expression
- Lipocalin-2 [gene expression] ([2]; renal cortex): 160 ± 24 rel. expression
- P-creatinine (glycerol-rat model; 24 h after glycerol): 52 ± 1 µmol/L
- P-urea (glycerol-rat model; 24 h after glycerol): 11 ± 0.4*^ mmol/l
- Kidney injury marker-1 (glycerol-rat model; TaqMan, renal cortex): 951 ± 216 rel. expression
- Lipocalin-2 (glycerol-rat model; TaqMan, renal cortex): 204 ± 23 rel. expression
- Osteopontin (glycerol-rat model; TaqMan, renal cortex): 5575 ± 694 rel. expression
- U-creatinine (glycerol-rat model; four-hour urine collection): 0.2 ± 0.03 μmol/ml urine/kg BW/h
- U-protein (glycerol-rat model; four-hour urine collection): 0.02 ± 0.01 μmol/ml urine/kg BW/h
- U-sodium (glycerol-rat model; four-hour urine collection): 4 ± 1 μmol/ml urine/kg BW/h
- U-urea (glycerol-rat model; four-hour urine collection): 31 ± 6 μmol/ml urine/kg BW/h
- Urine volume (glycerol-rat model; four-hour urine collection): 6.7 ± 0.6 ml/kg BW/h
- Kidney injury score (histo) (glycerol-rat model; left kidney, luminal casts + tubular necrosis/degeneration): 1.12
